Measured values published in EP4378525A1, “NON PEPTIDERGIC AGONISTS OF OXYTOCIN RECEPTOR” (Université de Strasbourg, priority 2022, dated 2024).
Read-outs that look alike come from different tables or passages of the source.

How the values were obtained:
oxytocin receptor = target: T1, oxytocin receptor (Homo sapiens, UniProt P30559); assay: IP-One IP1 accumulation assay in CHO cell lines expressing oxytocin receptor (agonist activation); format: cell-based; details: n=3; for Emax: CHO, percentage of the endogenous agonist maximal stimulation, read-out: OT-R Emax
T1 construct: expressed in transfected cells; host or cells: CHO cell lines
T1 sequence (P30559 1-389): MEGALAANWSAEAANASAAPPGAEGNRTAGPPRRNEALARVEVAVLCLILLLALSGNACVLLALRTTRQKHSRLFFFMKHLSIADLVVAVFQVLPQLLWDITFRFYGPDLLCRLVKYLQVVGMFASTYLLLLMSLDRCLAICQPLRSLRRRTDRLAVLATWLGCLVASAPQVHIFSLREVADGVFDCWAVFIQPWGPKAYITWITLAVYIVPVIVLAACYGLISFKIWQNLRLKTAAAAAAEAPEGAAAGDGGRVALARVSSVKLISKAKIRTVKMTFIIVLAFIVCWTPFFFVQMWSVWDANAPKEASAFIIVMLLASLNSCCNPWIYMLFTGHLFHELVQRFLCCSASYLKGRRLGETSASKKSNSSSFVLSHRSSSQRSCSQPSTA
Method: The activation constants (EC50 in nM) were measured in CHO cell lines expressing oxytocin receptor by IP-One IP1 accumulation assay. These values are the mean ± SEM of at least three separate experiments performed in triplicate. […] When there is only a weak stimulation, results are expressed as percentages of the endogenous agonist maximal stimulation at [ligand] = 1 µM (n = 2). Results are not significant (ns) when there is <10% response at [ligand] = 1 µM (n = 2).

V1A-R = V1A-R (Homo sapiens, UniProt P37288); assay: V1A receptor antagonist assay measured as calcium signal; format: cell-based; details: n=3; for Ratio V1A/OT: V1A-R IC50 / OT-R EC50; for IC50: antagonist, calcium signal, read-out: V1A-R (Antago) IC50
V1A-R, sequence (P37288 whole entry, species assumed): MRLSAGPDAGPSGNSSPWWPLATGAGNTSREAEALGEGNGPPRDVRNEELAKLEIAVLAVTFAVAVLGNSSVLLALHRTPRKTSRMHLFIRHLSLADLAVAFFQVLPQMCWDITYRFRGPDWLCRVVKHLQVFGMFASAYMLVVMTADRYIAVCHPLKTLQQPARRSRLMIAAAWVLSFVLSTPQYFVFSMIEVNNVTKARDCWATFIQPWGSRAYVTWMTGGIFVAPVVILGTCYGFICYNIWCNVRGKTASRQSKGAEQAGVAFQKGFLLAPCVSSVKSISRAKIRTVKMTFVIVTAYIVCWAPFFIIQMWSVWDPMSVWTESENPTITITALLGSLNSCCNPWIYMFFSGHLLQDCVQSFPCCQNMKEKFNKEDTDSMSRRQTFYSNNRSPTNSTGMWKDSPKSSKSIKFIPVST
Description: Comparison of efficacy as OT receptor agonist (measured as described in example 2), or as VIA receptor antagonist (measured as calcium signal, as follows), has been performed.

[1] = in vivo; cited from earlier work
[2] = CHO cell lines expressing oxytocin receptor, IP1 accumulation, read-out: OT-R EC50
[3] = selectivity table, measured as described in example 2, read-out: OT-R (Ago) EC50

Compound	Emax (oxytocin receptor)	EC50 (oxytocin receptor; [2])	EC50 (oxytocin receptor; [3])	Ratio V1A/OT (V1A-R)	IC50 (V1A-R)	half-life in blood [1]
Cc1cc(C(=O)N2Cc3cnn(C)c3Nc3ccccc32)ccc1CNC(=O)N1C[C@H](N=[N+]=[N-])C[C@H]1C(=S)N(C)C [Compound 2]	80%	39.1 nM				
CCCc1cn([C@@H]2C[C@@H](C(=S)N(C)C)N(C(=O)NCc3ccc(C(=O)N4Cc5cnn(C)c5Nc5ccccc54)cc3C)C2)nn1 [Compound 19]		31 nM				
Cc1cc(C(=O)N2Cc3cnn(C)c3Nc3ccccc32)ccc1CNC(=O)N1C[C@H](n2cc(COCCOCCO)nn2)C[C@H]1C(=S)N(C)C [Compound 14]		10 nM				
Cc1cc(C(=O)N2Cc3cnn(C)c3Nc3ccccc32)ccc1CNC(=O)N1C[C@@H](n2cc(CO)nn2)C[C@H]1C(=S)N(C)C [Compound 6]	100%	0.7 nM	1.12 nM	117	131 nM	
Cc1cc(C(=O)N2Cc3cnn(C)c3Nc3ccccc32)ccc1CNC(=O)N1C[C@H](n2cc(CN)nn2)C[C@H]1C(=S)N(C)C [Compound 8]	120%	33 nM				
oxytocin [OT]						about 3 minutes
Cc1cc(C(=O)N2Cc3cnn(C)c3Nc3ccccc32)ccc1CNC(=O)N1CCC[C@H]1C(=S)N(C)C [Reference, reference compound]	96.7%	45.1 nM	45.1 nM	7.7	346 nM	
